Test results taken from patent US20110015206A1, “METHOD OF STABILIZING LIPID-RICH PLAQUE AND METHOD OF PREVENTING RUPTURE THEREOF” (KOWA CO., LTD., priority 2003, published 2011).

Assays:
Format in all cases: in vivo
ApoE knockout mice [1] = experiment: Sirius Red staining of collagen in aortic sinus plaques; details: male ApoE knockout mice, 100 mg/kg orally twice a day for 12 weeks; compared with control group
Protocol: (§1) Home breeding male ApoE knockout mice, (C57BL/6J-ApoE<tmlUnc>, Jackson Labo™) were bred under common condition, 8 weeks old, were used for test.
(§2) The compound 1 (Example 32, WO98/54153) and control drug, CI-1011 (Example 5, WO 94/26702), were synthesized according to methods described in each publication. The compound 1 and CI-1011 were dissolved (the compound 1) or suspended (CI-1011) in aqueous solution of 0.5% methylcellulose (MC). The solution or suspension was prepared to be a dose of 100 mg/kg and a volume for administration of 0.1 mL/10 g body weight. The control group (no drug administered group) received the solvent, aqueous solution of 0.5% methylcellulose (MC). […]
(§3) After collecting the blood, animals were undergone thoracotomy and 20-G injection needle was punctured into the cardiac apex. […] Using the specimens of Victoria blue-hematoxylin and eosin staining, the internal elastic layer was specified by observation of optical microscope, and the cross-sectional area of the plaques was analyzed (Win ROOF, Mitsuya Shoji K.K.). Similarly, the area of macrophages was measured by using the specimens of macrophage immunohistochemical staining, and a ratio in total area of the plaques (the occupancy rate of macrophages) was calculated. […]

ApoE knockout mice [2] = experiment: Plasma total cholesterol level in ApoE knockout mice with primary hyperlipidemia; details: male ApoE knockout mice, 100 mg/kg orally twice a day for 12 weeks; mean±standard error; control group 641.8±23.0
Protocol: as §1
The compound 1 (Example 32, WO98/54153) and control drug, CI-1011 (Example 5, WO 94/26702), were synthesized according to methods described in each publication. The compound 1 and CI-1011 were dissolved (the compound 1) or suspended (CI-1011) in aqueous solution of 0.5% methylcellulose (MC). The solution or suspension was prepared to be a dose of 100 mg/kg and a volume for administration of 0.1 mL/10 g body weight. The control group (no drug administered group) received the solvent, aqueous solution of 0.5% methylcellulose (MC). Prepared drug solution and suspension were administered twice a day, orally, for continuing to 12 weeks (up to 20 weeks old) (total 3 groups, each 15 animal).
After ending the final administration, mice were fasted. In the next morning, mice were laparotomized under pentobarbital sodium anesthesia to expose abdominal vein and collected blood sample 1 mL. The collected blood was centrifuged at 3000 rpm for 15 minutes to collect the plasma. Plasma total cholesterol level was assayed by using cholesterol E-test Wako (cholesterol oxidase DAOS method).
Obtained results are shown in mean±standard error. Test of significance between the control group and the drug-administered group is performed by Dunnett's test.

ApoE knockout mice [3] = experiment: Cross-sectional area of the plaques in aortic sinus, Victoria blue-hematoxylin and eosin staining; details: male ApoE knockout mice, 100 mg/kg orally twice a day for 12 weeks, mean±standard error, control group 0.23±0.03
Protocol: as §1, §2, §3

ApoE knockout mice [4] = experiment: Macrophage immunohistochemical staining (anti-CD11b antibody) of aortic sinus plaques; details: male ApoE knockout mice, 100 mg/kg orally twice a day for 12 weeks; compared with control group
Protocol: as §1, §2, §3

ApoE knockout mice [5] = experiment: Azan staining of aortic sinus plaques; details: male ApoE knockout mice, 100 mg/kg orally twice a day for 12 weeks; compared with control group
Protocol: as §1, §2, §3

Structure (SMILES)	Sirius Red staining, collagen fibers (observation) (ApoE knockout mice [1])	plasma total cholesterol level (ApoE knockout mice [2])	cross-sectional area of the plaques (ApoE knockout mice [3])	macrophage immunohistochemical staining (observation) (ApoE knockout mice [4])	Azan staining, composition of the plaques (observation) (ApoE knockout mice [5])
CC(C)c1cc(C(C)C)c(CC(=O)NS(=O)(=O)Oc2c(C(C)C)cccc2C(C)C)c(C(C)C)c1 [CI-1011, avasimibe]	smaller numbers of collagen fibers were observed as compared with the control group	360.3 ± 19.4 mg/dL	0.09±0.01 mm^2	the macrophages were observed abundantly in whole plaques	the plaques consisted largely of red stained macrophage and the blue stained extracellular matrix was scanty
CSc1cc(C)nc(SC)c1NC(=O)CN1CCN(CCSc2nc3ccccc3[nH]2)CC1 [compound 1, 2-[4-[2-(benzimidazol-2-ylthio)ethyl]piperazin-1-yl]-N-[2,4-bis(methylthio)-6-methyl-3-pyridyl]acetamide]	compactly arranged collagen fibers were observed in whole plaques	535.0 ± 22.8 mg/dL	0.22±0.03 mm^2	the macrophages were occasionally observed	the plaques consisted of small area of cellular components and large numbers of surrounding extracellular matrix
